Converted amounts (≈) assume the structure as drawn. Counter-ions that a name gives are not always drawn.
Key:
HBeAg = assay: In vitro anti-HBV activity: HBeAg production in HBV-infected 2.2.15 cells (RIA); assay type: cell-based, Hepatitis B virus (HBV); details: for IC50: Hepatitis B virus, read-out: HBeAg IC50; for HBeAg SI: selectivity index
Description: (§1) All compounds were evaluated for their anti-HBV activities, namely the ability to inhibit the replication of HBV DNA and the production of HBsAg and HBeAg in HBV-infected 2.2.15 cells.
(§2) The samples were dissolved in DMSO for appropriate concentrations, and then each was diluted 3-fold with culture medium. The 2.2.15 cells were planted into 96-well culture plates. […] The culture supernatants and 2.2.15 cells were collected respectively on the 8th plant day. The secretion concentrations of HBsAg and HBeAg in the culture supernatants were measured by RIA on SPRIA Kit for Detection of HBsAg and HBeAg (Beijing North Institute of Biological Technology), and the replication of HBV DNA was measured by dot hybridization with a^32PdCTP (FuRui Biological Technology Ltd., China).

HBV DNA = assay: In vitro anti-HBV activity: replication of HBV DNA in 2.2.15 cells (dot hybridization); assay type: cell-based, Hepatitis B virus (HBV); details: for IC50: Hepatitis B virus, read-out: DNA replication IC50; for DNA replication SI: selectivity index
Outline: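 HBV-producing 2.2.15 cells exposed to 3-fold serial dilutions of compound (DMSO stocks diluted in medium); cells and supernatants harvested on day 8. Intracellular HBV DNA replication quantified by dot hybridization with α-32P-dCTP probe; HBsAg/HBeAg in supernatant by RIA.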

2.2.15 cells = assay: Cytotoxicity (TC50) in 2.2.15 cells; assay type: cell-based
[1] = tested on: influenza A virus, strain A/jifang/90-15; assay: microbe, parasite or virus in culture; assay type: cell-based; details: for IC50: Influenza A virus, Influenza strain A/jifang/90-15, MDCK cells, CPE, Reed-Muench, read-out: IC50; for SI: Influenza strain A/jifang/90-15
[2] = tested on: Madin-Darby canine kidney (MDCK) cells
HBsAg = assay: In vitro anti-HBV activity: HBsAg production in HBV-infected 2.2.15 cells (RIA); assay type: cell-based, Hepatitis B virus (HBV); details: for IC50: Hepatitis B virus, read-out: HBsAg IC50; for HBsAg SI: selectivity index
Description: as §1, §2

Q: `CCOC(=O)c1c(CS(=O)(=O)c2cccc(OC)c2)n(C)c2ccc(O)c(CN3CCCC3)c12` [Example 72, Ethyl 5-hydroxy-1-methyl-4-(1-pyrrolidinylmethyl)-2-[(3-methoxyphenyl)sulfonylmethyl]-1H-indole-3-carboxylate hydrochloride] was tested. Which IC50 (HBeAg) did it give?
A: 15.4 mg/L

Q: And the “HBeAg SI” value (HBeAg)?
A: 6.9

Q: What about the IC50 (HBV DNA) of the same compound?
A: 15.4 mg/L

Q: And the “DNA replication SI” value (HBV DNA)?
A: 6.9

Q: What about the TC50 (2.2.15 cells) of the same compound?
A: 106.83 mg/L

Q: How did the IC50 [1] turn out when `CCOC(=O)c1c(CSCc2ccccc2)n(C2CC2)c2cc(Br)c(O)c(Cn3ccnc3)c12` [Example 91, Ethyl 6-bromo-1-cyclopropyl-5-hydroxy-4-[(1-imidazolyl)methyl]-2-(benzylthiomethyl)-1H-indole-3-carboxylate] was run?
A: 15.6 mg/L (≈ 28.9 µM)

Q: And the SI [1]?
A: 18.77

Q: What about the TC50 [2] of the same compound?
A: 293.37 mg/L (≈ 543 µM)

Q: What does the source list for `CCOC(=O)c1c(CSCc2ccc(F)cc2)n(C)c2cc(Br)c(O)c(Cn3ccnc3)c12` [Example 92, Ethyl 6-bromo-5-hydroxy-4-[(1-imidazolyl)methyl]-1-methyl-2-[(4-fluorobenzyl)thiomethyl]-1H-indole-3-carboxylate]?
A: IC50 [1]: 7.81 mg/L (≈ 14.7 µM); SI [1]: 2.35; TC50 [2]: 18.34 mg/L (≈ 34.4 µM)

Q: What does the source list for `CCOC(=O)c1c(CSCc2ccc(F)cc2)n(C)c2cc(Br)c(O)c(Cn3ccnc3C)c12` [Example 100, Ethyl 6-bromo-5-hydroxy-1-methyl-4-[(2-methyl-1-imidazolyl)methyl]-2-[(4-fluorobenzyl)thiomethyl]-1H-indole-3-carboxylate]?
A: IC50 [1]: 22.1 mg/L (≈ 40.4 µM); SI [1]: 2.24; TC50 [2]: 49.61 mg/L (≈ 90.8 µM)

Q: For `CCOC(=O)c1c(CSCc2ccccc2)n(C)c2cc(Br)c(O)c(CNC(=N)N)c12` [Example 104, Ethyl 6-bromo-4-(guanidinylmethyl)-5-hydroxy-1-methyl-2-(benzylthiomethyl)-1H-indole-3-carboxylate], which IC50 [1] is on record?
A: 13.3 mg/L (≈ 26.4 µM)

Q: And the SI [1]?
A: 11.16

Q: What about the TC50 [2] of the same compound?
A: 148.65 mg/L (≈ 294 µM)

Q: What does the source list for `CCOC(=O)c1c(C[S+]([O-])Cc2ccccc2)n(C2CC2)c2cc(Br)c(O)c(Cn3ccnc3)c12` (stereo not drawn) [Example 126, Ethyl 6-bromo-1-cyclopropyl-5-hydroxy-4-[(1-imidazolyl)methyl]-2-(benzylsulfinylmethyl)-1H-indole-3-carboxylate]?
A: IC50 (HBV DNA): 6.36 mg/L (≈ 11.4 µM); DNA replication SI (HBV DNA): 5.60; IC50 [1]: 11.1 mg/L (≈ 19.9 µM); SI [1]: 4.0; TC50 [2]: 44.19 mg/L (≈ 79.4 µM); TC50 (2.2.15 cells): 35.61 mg/L (≈ 64 µM)

Q: Which results are given for `CCOC(=O)c1c(C[S+]([O-])Cc2cscn2)n(C2CC2)c2cc(Br)c(O)c(Cn3ccnc3)c12` (stereo not drawn) [Example 128, Ethyl 6-bromo-1-cyclopropyl-5-hydroxy-4-[(1-imidazolyl)methyl]-2-[(4-thiazolylmethyl)sulfinylmethyl]-1H-indole-3-carboxylate dihydrochloride]?
A: IC50 (HBeAg): 8.06 mg/L; HBeAg SI (HBeAg): 6.63; IC50 (HBsAg): 7.23 mg/L; HBsAg SI (HBsAg): 7.39; TC50 (2.2.15 cells): 53.42 mg/L

Q: What does the source list for `CCOC(=O)c1c(CSCc2ccccc2)n(C)c2cc(Br)c(O)c(Cn3ccnc3)c12` [Example 176, Ethyl 6-bromo-5-hydroxy-4-[(1-imidazolyl)methyl]-1-methyl-2-(benzylthiomethyl)-1H-indole-3-carboxylate]?
A: IC50 [1]: 15.6 mg/L (≈ 30.4 µM); SI [1]: 8.0; TC50 [2]: 125 mg/L (≈ 243 µM)

Q: Which results are given for `CCOC(=O)c1c(CS(=O)(=O)Cc2ccccc2)n(C2CC2)c2cc(Br)c(O)c(Cn3ccnc3C)c12` [Example 178, Ethyl 6-bromo-1-cyclopropyl-5-hydroxy-4-[(2-methyl-1-imidazolyl)methyl]-2-(benzylsulfonylmethyl)-1H-indole-3-carboxylate]?
A: IC50 [1]: 7.81 mg/L (≈ 13.3 µM); SI [1]: 10.08; TC50 [2]: 78.75 mg/L (≈ 134 µM)

Q: For `CCOC(=O)c1c(CS(=O)(=O)C23CC4CC(CC(C4)C2)C3)n(C)c2cc(Br)c(O)c(Cn3ccnc3C)c12` [Example 179, Ethyl 6-bromo-5-hydroxy-1-methyl-4-[(2-methyl-1-imidazolyl)methyl]-2-[(1-adamantanyl)sulfonylmethyl]-1H-indole-3-carboxylate], which IC50 (HBeAg) is on record?
A: 1.91 mg/L (≈ 3.16 µM)

Q: And the “HBeAg SI” value (HBeAg)?
A: 5.60

Q: And the IC50 (HBsAg)?
A: 1.88 mg/L (≈ 3.11 µM)

Q: And the “HBsAg SI” value (HBsAg)?
A: 5.69

Q: And the TC50 (2.2.15 cells)?
A: 10.69 mg/L (≈ 17.7 µM)

Q: `CCOC(=O)c1c(C[S+]([O-])Cc2cscn2)n(C2CC2)c2cc(Br)c(O)c(Cn3ccnc3C)c12` (stereo not drawn) [Example 182, Ethyl 6-bromo-1-cyclopropyl-5-hydroxy-4-[(2-methyl-1-imidazolyl)methyl]-2-[(4-thiazolylmethyl)sulfinylmethyl]-1H-indole-3-carboxylate dihydrochloride] was tested. Which IC50 (HBeAg) did it give?
A: 7.69 mg/L

Q: What about the “HBeAg SI” value (HBeAg) of the same compound?
A: 8.34

Q: What about the IC50 (HBsAg) of the same compound?
A: 4.66 mg/L

Q: What about the “HBsAg SI” value (HBsAg) of the same compound?
A: 13.77

Q: And the TC50 (2.2.15 cells)?
A: 64.15 mg/L

Q: `CCOC(=O)c1c(CSCc2ccccc2F)n(C2CC2)c2cc(Br)c(O)c(Cn3cncn3)c12` [Example 186, Ethyl 6-bromo-1-cyclopropyl-5-hydroxy-4-[(1H-1,2,4-triazol-1-yl)methyl]-2-[(2-fluorobenzyl)thiomethyl]-1H-indole-3-carboxylate] was tested. Which IC50 [1] did it give?
A: 9.17 mg/L (≈ 16.4 µM)

Q: And the SI [1]?
A: 6.82

Q: And the TC50 [2]?
A: 62.5 mg/L (≈ 112 µM)

Q: Which IC50 [1] does the source give for `CCOC(=O)c1c(CSCc2ccc(F)cc2)n(C)c2cc(Br)c(O)c(Cn3cncn3)c12` [Example 187, Ethyl 6-bromo-5-hydroxy-1-methyl-4-[(1H-1,2,4-triazol-1-yl)methyl]-2-[(4-fluorobenzyl)thiomethyl]-1H-indole-3-carboxylate] here?
A: 26.6 mg/L (≈ 49.9 µM)

Q: What about the SI [1] of the same compound?
A: 1.66

Q: And the TC50 [2]?
A: 44.19 mg/L (≈ 82.8 µM)

Q: How did the IC50 [1] turn out when `CCOC(=O)c1c(CSCc2ccccc2)n(C2CC2)c2cc(Br)c(O)c(CNC(=N)N)c12` [Example 188, Ethyl 6-bromo-1-cyclopropyl-4-(guanidinylmethyl)-5-hydroxy-2-(benzylthiomethyl)-1H-indole-3-carboxylate] was run?
A: 9.85 mg/L (≈ 18.5 µM)

Q: What about the SI [1] of the same compound?
A: 4.0

Q: And the TC50 [2]?
A: 39.37 mg/L (≈ 74.1 µM)

Q: Which results are given for `CCOC(=O)c1c(CSc2nc3ccccc3[nH]2)n(C)c2cc(Br)c(O)c(CNC(=N)N)c12` [Example 189, Ethyl 6-bromo-4-(guanidinylmethyl)-5-hydroxy-1-methyl-2-[(benzo[d]imidazol-2-yl)thiomethyl]-1H-indole-3-NL carboxylate]?
A: IC50 (HBeAg): 28 mg/L (≈ 52.6 µM); HBeAg SI (HBeAg): 9.25; IC50 (HBV DNA): 12.4 mg/L (≈ 23.3 µM); DNA replication SI (HBV DNA): 20.91; IC50 (HBsAg): 12.5 mg/L (≈ 23.6 µM); HBsAg SI (HBsAg): 20.66; TC50 (2.2.15 cells): 258.69 mg/L (≈ 487 µM)

— patent publication US7960427B2, “5-hydroxyindole-3-carboxylate derivatives and uses thereof” (priority 2004, dated 2011)
